# Reference: US10633389B2, “CARM1 inhibitors and uses thereof” (Epizyme, Inc., priority 2013, dated 2020)
# Test system: asymmetric di-methyl PABP1 in RKO cells
# Assay: RKO methylation assay, In Cell Western (ICW) for asymmetric di-methyl PABP1
# Assay type: cell-based
# Settings: Homo sapiens, RKO, Cellular potencies, ICW PABP1me2a
# Procedure, shortened: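 RKO cells treated with compound for 48 h at 37 °C, then fixed, permeabilized and immunostained for asymmetric di-methyl PABP1, with DRAQ5 as DNA stain. Infrared 700/800 nm signal ratio normalized to DMSO and 20 μM reference-compound controls; IC50 from triplicate wells.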
row,IC50 [µM],Compound
1,< 5,CCOC(=O)N1CCOC[C@@H]1CNc1nc(-c2cccc(OC[C@H](O)CNC)c2)nc(-c2c(C)noc2C)c1C [Example 277-1a]
2,< 5,CNC[C@@H](O)COc1ccc(F)c(-c2nc(-c3c(C)noc3C)cc(N3CC4(CCOCC4)C3)n2)c1 [Example 277-3]
3,< 5,CCOC(=O)N1CCOC[C@@H]1CNc1nc(-c2cccc(OC[C@@H](O)CNC)c2)nc(-c2c(C)noc2C)c1C [Example 278-1a]
4,10 to 20,CNC[C@@H](O)COc1cccc(-c2nc(NC3CCN(C(=O)OC)CC3)cc(-c3c(C)nnn3C)n2)c1 [Example 278-3]
5,< 5,CNCC(O)COc1cccc(-c2nc(N[C@H]3CCOC[C@@H]3F)c(C)c(-c3c(C)noc3C)n2)c1 (some centres unmarked) [Example 279-1a]
6,10 to 20,CNC[C@@H](O)COc1ccc(Cl)c(-c2nc(-c3c(C)noc3C)c(C)c(N3Cc4[nH]c(=O)[nH]c(=O)c4C3)n2)c1 [Example 279-3]
7,10 to 20,CNCC(O)COc1cccc(-c2nc(NC3C[C@@H](O)[C@H](O)C3)c(C)c(-c3c(C)noc3C)n2)c1 (some centres unmarked) [Example 280-1a]
8,< 5,CNC[C@@H](O)COc1ccc(F)c(-c2nc(-c3c(C)noc3C)c(C)c(N3CC4(CCN(CC(F)F)CC4)C3)n2)c1 [Example 280-3]
9,10 to 20,CNCC(O)COc1cccc(-c2nc(N[C@H]3CCOC3=O)c(C)c(-c3c(C)noc3C)n2)c1 (some centres unmarked) [Example 281-1a]
10,< 5,CNC[C@@H](O)COc1ccc(F)c(-c2nc(-c3c(C)noc3C)c(C)c(N3CC4(CCN(C(=O)OC(C)C)CC4)C3)n2)c1 [Example 281-3]
11,< 5,CNCC(O)COc1cccc(-c2nc(N[C@H]3[C@@H]4CN(C(=O)OC)C[C@@H]43)c(C)c(-c3c(C)noc3C)n2)c1 (some centres unmarked) [Example 282-1a]
12,< 5,CCOC(=O)N1CCC2(CC1)CN(c1nc(-c3cc(OC[C@H](O)CNC)ccc3F)nc(-c3c(C)noc3C)c1C)C2 [Example 282-3]
13,< 5,CNCC(O)COc1cccc(-c2nc(NCC3CCN(C4CC4)CC3)c(C)c(-c3c(C)noc3C)n2)c1 (centres unmarked) [Example 283-1a]
14,< 5,CNC[C@@H](O)COc1ccc(Cl)c(-c2nc(-c3c(C)noc3C)c(C)c(N3CC4(CCN(CC(F)F)CC4)C3)n2)c1 [Example 283-3]
15,< 5,CNCC(O)COc1cccc(-c2nc(OCC3CCN(C(=O)OC)CC3)c(C)c(-c3c(C)noc3C)n2)c1 (centres unmarked) [Example 284-1a]
16,< 5,CNC[C@@H](O)COc1ccc(Cl)c(-c2nc(-c3c(C)noc3C)c(C)c(N3CC4(CCN(C(=O)OC(C)C)CC4)C3)n2)c1 [Example 284-3]
17,< 5,CNCC(O)COc1cccc(-c2nc(OCC3CCN(C(=O)N(C)C)CC3)c(C)c(-c3c(C)noc3C)n2)c1 (centres unmarked) [Example 285-1a]
18,< 5,CCOC(=O)N1CCC2(CC1)CN(c1nc(-c3cc(OC[C@H](O)CNC)ccc3Cl)nc(-c3c(C)noc3C)c1C)C2 [Example 285-3]
19,< 5,CNCC(O)COc1cccc(-c2nc(OCC3CCN(S(C)(=O)=O)CC3)c(C)c(-c3c(C)noc3C)n2)c1 (centres unmarked) [Example 286-1a]
20,< 5,CNC[C@@H](O)COc1ccc(Cl)c(-c2nc(-c3c(C)noc3C)c(C)c(N3CC4(CCN(C(=O)OC(C)C)C4)C3)n2)c1 [Example 286-3]
21,< 5,CNCC(O)COc1cccc(-c2nc(OCC3CCN(C(C)=O)CC3)c(C)c(-c3c(C)noc3C)n2)c1 (centres unmarked) [Example 287-1a]
22,< 5,CCOC(=O)N1CCC2(C1)CN(c1nc(-c3cc(OC[C@H](O)CNC)ccc3Cl)nc(-c3c(C)noc3C)c1C)C2 [Example 287-3]
23,< 5,CNCC(O)COc1cccc(-c2nc(OCC3CCN(CC(F)F)CC3)c(C)c(-c3c(C)noc3C)n2)c1 (centres unmarked) [Example 288-1a]
24,< 5,CNC[C@@H](O)COc1ccc(Cl)c(-c2nc(-c3c(C)noc3C)c(C)c(N3CCC4(CCOC4)C3)n2)c1 (some centres unmarked) [Example 288-3]
25,5 to 10,CNCC(O)COc1cccc(-c2nc(OCC3CCNCC3)c(C)c(-c3c(C)noc3C)n2)c1 (centres unmarked) [Example 289-1a]
26,< 5,CNC[C@@H](O)COc1ccc(Cl)c(-c2nc(-c3c(C)noc3C)c(C)c(N3CCC4(CCCO4)C3)n2)c1 (some centres unmarked) [Example 289-3]
